Source: patent US20230357240A1, “NOVEL N-HETEROCYCLIC BET BROMODOMAIN INHIBITOR, AND PREPARATION METHOD THEREOF AND MEDICAL USE THEREOF” (Chengdu Easton Biopharmaceuticals Co., Ltd., priority 2020, published 2023)
Where two headings read alike, the source gives them in different places.

Experiments:
[1] = Pharmacokinetic test in SD rats (plasma drug concentration by LC/MS/MS); assay type: in vivo; conditions: rat, 2 mg/kg; for AUC(0-t): read-out: Area under the curve AUClast; for half-life: read-out: Half life T1/2 (converted); for Cmax: read-out: Peak concentration Cmax; for MRT: read-out: Retention time MRT; for Tmax: read-out: Time to peak Tmax
Protocol: EXAMPLE 10 Pharmacokinetic Test of the Compound of the Present Application
SD rats were used as test animals. After gavage administration or tail vein injection of the compound of the present application to the rats, plasma drug concentrations were measured by the LC/MS/MS method at different moments, and pharmacokinetic features of the compound of the present application in the rats was studied.
Source of SD rats: Chengdu Dashuo Experimental Animal Co., Ltd.
Method of administration: single gavage administration and single tail vein injection
Dosage and concentration: 2 mg/kg rat body weight, 0.5 mg/mL
Formulation: 20% β-cyclodextrin solution
Sampling points: 5 min, 15 min, 30 min, 45 min, 1 h, 1.5 h, 2 h, 4 h, 5 h, 6 h, 7 h, 8 h, 9 h and 24 h
Standard curve preparation and sample treatment: 10 mg of the sample to be tested was accurately weighed and added into 1 mL of DMSO for dissolution, and the mixture was used as a stock solution. The stock solution was diluted with 50% (v/v) methanol aqueous solution to prepare standard working solutions having a concentration of 10, 20, 50, 100, 200, 500, 1000 and 2000 ng/mL, respectively. 5 μL of each of the standard working solutions was added to 45 μL of blank rat plasma to prepare standard samples containing the analyte at concentrations of 1.00, 2.00, 5.00, 10.00, 20.00, 50.00, 100.00 and 200.00 ng/mL, 200 μL of methanol (containing internal standard substance: 5 ng/mL memantine hydrochloride) was added to each standard sample, the standard samples were oscillated for 3 minutes and centrifuged at 12000 rpm at 4° C. for 10 minutes, and […] of the supernatant was collected for LC-MS/MS analysis. The test results were calculated by Analyst® software.
Preparation of quality control solution and sample treatment: 10 mg of the sample to be tested was accurately weighed and added into 1 mL of DMSO for dissolution, and the mixture was used as a stock solution. The stock solution was diluted with 50% (v/v) methanol aqueous solution to prepare quality control working solutions having a concentration of 30, 600 and 1600 ng/mL, respectively. 5 μL of each of the quality control working solutions was added to 45 μL of blank rat plasma to prepare quality control samples containing the analyte at concentrations of 3.00, 60.00 and 160.00 ng/mL, 200 μL of methanol (containing internal standard substance: 5 ng/mL memantine hydrochloride) was added to each standard sample, the standard samples were oscillated for 3 minutes and centrifuged at 12000 rpm at 4° C. for 10 minutes, and […] of the supernatant was collected for LC-MS/MS analysis. The test results were calculated by Analyst® software.

[2] = system: MV4-11 xenograft tumor; assay: In vivo efficacy test, MV4-11 xenograft tumor model in mice; conditions: NOD-SCID mice, 5 mg/kg qd gavage, 14 days
Excerpt: EXAMPLE 11 In Vivo Efficacy Test of the Compound of the Present Application
Objective: To test the inhibitory effect of the test compound on the growth of xenograft tumor in nude mice with MV4-11 leukemia.
Method: NOD-SCID mice were subcutaneously inoculated with MV4-11 cells to establish an MV4-11 xenograft tumor model in mice. 16 days after inoculation (d16), average tumor volume was about 210 mm^3. According to the tumor volumes, the tumor-bearing mice were grouped in a random block method, with 6 mice in each group. The groups included a solvent control group, an ABBV-744 control group, and a test sample group, the dosage was 5 mg/kg mouse body weight, and the dose volume was 10 mL/kg mouse body weight, once a day. Each group was gavage administered for 14 consecutive days, and the solvent control group was gavage administered with a blank solvent (20% […] solution). Tumor volumes were measured twice weekly after administration of the test drug. The animals were euthanized after the test.

- AUC(0-t) ([1]; iv, tail vein injection): 327 ng·h/mL
- half-life ([1]; iv, tail vein injection): 61.8 min
- Cmax ([1]; iv, tail vein injection): 276 ng/mL
- MRT ([1]; iv, tail vein injection): 87 min
- Tmax ([1]; iv, tail vein injection): 4.8 min
- AUC(0-t) ([1]; po, gavage): 250 ng·h/mL
- half-life ([1]; po, gavage): 49.8 min
- Cmax ([1]; po, gavage): 143 ng/mL
- MRT ([1]; po, gavage): 82.2 min
- Tmax ([1]; po, gavage): 17.4 min
SMILES: CCNC(=O)c1cc2c(-c3sc(C(C)(C)O)cc3N3CCc4ccccc43)cn(C)c(=O)c2[nH]1 [Compound 1, N-ethyl-4-(5-(2-hydroxypropyl-2-yl)-3-(indolin-1-yl)thiophen-2-yl)-6-methyl-7-oxo-6,7-dihydro-1H-pyrrolo[2,3-c]pyridine-2-carboxamide]
- Relative tumor proliferation rate T/C [2]: 33.15%
